Source: patent US20220017471A1, “FUNCTIONALITY INDEPENDENT LABELING OF ORGANIC COMPOUNDS” (Shanghai Tech University, priority 2018, published 2022)
Where a name gives a salt, the structure may show the parent alone.

How the values were obtained:
[1] = biological target: T1, heat shock 70 kDa protein (HSP70) (Homo sapiens, UniProt P0DMV8); experiment: nDEL affinity selection against HSP70 (enrichment fold by deep sequencing); type: binding; settings: ratio of normalized sequencing counts in presence and absence of target protein; DNA-encoded compound
T1 construct: purchased Sino Biological 11660-H07H
Description: (§1) The panning procedure for these two soluble protein were the same. 5 μg of target protein was mixed with Ni-charged MagBeads (GenScript, Cat. #L00295), 5 nM DEL library and 10 μg/mL Salmon sperm DNA. The final volume to adjusted to 100 μL. The mixture was rotated at room temperature for 1.5 h. After washing 5 times by phosphate-buffered saline supplemented 0.05% Tween-20 (PBST), the target protein binding chemical-DNA conjugations were eluted by heating at 95° C. for 10 min in 50 μL elution buffer (20 mM Tris, pH 7.4, 100 mM NaCl). The eluted DEL compounds were amplified by PCR using Takara PrimerSTAR Max DNA Polymerase (Takara, Cat. #R045A). Then the excess primers was removed by Hieff NGS™ smarter DNA clean beads (Yeasen, Cat. #12600E503) and evaluated on 4% DNA agarose gel. The amplified products was subjected for high-throughput sequencing using Illumina HiSeq X10 Analyzer.
The combinatorial chemical library was constructed by three building block sub libraries, containing 6, 46 and 46 chemical building blocks respectively for the first, second and third building block libraries, respectively. Each building block was encoded by a 10-base pair (bp) DNA sequence. The natural products were encoded by a 30-bp DNA sequence, same length as the combinatorial chemical library DNA codes. […] After sequencing, the Illumina adaptors around the DNA coding sequences were trimmed by CLC genomics workbench version 12 (Qiagen). The left DNA coding sequences were 30 bp in length corresponding to the three DNA sequences of building blocks in 3 rounds of “split-pool” iterations. For each sample, the DNA coding sequences were mapped to the reference DNA encoding compound library. No mismatch was allowed in the mapping. The coding sequences were counted for all the compounds across different samples. The total read-counts of all the compounds in a given sample were calculated. The read-counts for each individual compound were divided by the total counts, multiplied with a constant of 100000.
(§2) NormalizedCountCompoundM,SampleA=CountCompoundM,SampleA/(TotalCountSampleA)*100000
The fold changes of each compound in the after-selection library comparing to the reference library were calculated.
(§3) FoldChangeCompoundM=NormalizedCountCompoundM,SampleA/NormalizedCountCompoundM,Ref
(§4) The hit criteria of nDEL screening take into account of both the normalized enrichment fold values (y-axis) and deep sequencing read counts (x-axis). Compounds with read counts less than 10 are considered unreliable, thus they are eliminated immediately from DEL before on-target screening. For each DEL library, a baseline enrichment fold is recorded in the absence of target protein, and a normalized enrichment fold value can be calculated for each DEL compound in the library. The cutoff for hits identification is based on a simplified statistical analysis of a highly diverse population of data, which is the sum of average value of enrichment-folds of the whole library (μ) plus 3 times of the standard deviation (σ).
Two target proteins with different cellular locations and biophysical properties were used in nDEL screens. […] The known functional binders for these targets were included in nDEL as internal positive controls, e.g., oridonin for HSP70 and derivatives of olaparib (F001, F002, F003 and F006) for PARP-1. To account for the non-uniform distribution of DNA barcodes in nDEL, a blank screen of nDEL in the absence of target proteins but presence of immobilization matrix beads was carried out first and followed by deep-sequencing to establish the baseline distribution of barcodes in the library. All screening data were analyzed using the method described by Decurtins et al., Nat Protoc. […] The corresponding DNA sequence of each nDEL compound were tallied based on its sequencing counts. The enrichment fold is calculated as the ratio of normalized sequencing counts in the presence and absence of target protein.

[2] = biological target: T2, poly [ADP-ribose] polymerase 1 (PARP1) (Homo sapiens, UniProt P09874); experiment: nDEL affinity selection against PARP-1 (enrichment fold by deep sequencing); type: binding; settings: for Fold Change, enrichment folds for PARP-1 binder selection: ratio of normalized sequencing counts in presence and absence of target protein, DNA-encoded compound
T2 construct: purchased Sino Biological 11040-H08B
Description: as §1, with “The his-tag fused recombinant human PARP-1 (Sino Biological, Cat. #11040-H08B) and human-HSP70 (Sino Biological, Cat. #11660-H07H) were obtained from commercial source. The panning” for “The panning”
The combinatorial chemical library was constructed by three building block sub libraries, containing 6, 46 and 46 chemical building blocks respectively for the first, second and third building block libraries, respectively. Each building block was encoded by a 10-base pair (bp) DNA sequence. The natural products were encoded by a 30-bp DNA sequence, same length as the combinatorial chemical library DNA codes. All the possible combinations (combinatorial chemical compounds) between these three sub libraries were generated by an inhouse java program, which generated a reference DNA encoding library contains 12696 DNA encoding sequences. After sequencing, the Illumina adaptors around the DNA coding sequences were trimmed by CLC genomics workbench version 12 (Qiagen). The left DNA coding sequences were 30 bp in length corresponding to the three DNA sequences of building blocks in 3 rounds of “split-pool” iterations. For each sample, the DNA coding sequences were mapped to the reference DNA encoding compound library. No mismatch was allowed in the mapping. The coding sequences were counted for all the compounds across different samples. The total read-counts of all the compounds in a given sample were calculated. The read-counts for each individual compound were divided by the total counts, multiplied with a constant of 100000.
as §2
The fold changes of each compound in the after-selection library comparing to the reference library were calculated. For example, if SampleA and Reference library were compared, for the fold change of CompoundM was calculated as:
as §3, §4
Two target proteins with different cellular locations and biophysical properties were used in nDEL screens. […] The known functional binders for these targets were included in nDEL as internal positive controls, e.g., oridonin for HSP70 and derivatives of olaparib (F001, F002, F003 and F006) for PARP-1.

Cn1cnc2c1c(=O)[nH]c(=O)n2C [Theobromine, reference compound]
Enrichment Fold, HSP70 binder selection [1]: 4.3 | Fold Change, enrichment folds for PARP-1 binder selection [2]: 2.42

O=C1c2ccccc2C(=O)c2c1ccc(O)c2O [Alizarin]
Enrichment Fold, HSP70 binder selection [1]: 4.3 | Fold Change, enrichment folds for PARP-1 binder selection [2]: 2.02

O=c1c(O)c(-c2ccc(O)c(O)c2)oc2cc(O)cc(O)c12 [quercetin, Quercetin]
Enrichment Fold, HSP70 binder selection [1]: 2.8

O=c1ccc2ccc(O)c(O)c2o1 [Daphnetin]
Enrichment Fold, HSP70 binder selection [1]: 3.9 | Fold Change, enrichment folds for PARP-1 binder selection [2]: 2.17

COc1c(O)cc2c(c1O)[C@@H]1O[C@H](CO)[C@@H](O)[C@H](O)[C@H]1OC2=O [Bengenin]
Enrichment Fold, HSP70 binder selection [1]: 3.6

O=C(O)c1ccc(O)c(O)c1 [Protocatechuic acid]
Enrichment Fold, HSP70 binder selection [1]: 3.8

Cn1c(=O)c2c(ncn2CC(=O)O)n(C)c1=O [Theophylline-7-acetic acid, Theophylline-7-acetic acid, reference compound]
Enrichment Fold, HSP70 binder selection [1]: 3.3

COC(=O)Nc1nc2ccc(C(=O)c3cccs3)cc2[nH]1 [Nocodazole, reference compound]
Enrichment Fold, HSP70 binder selection [1]: 3.9 | Fold Change, enrichment folds for PARP-1 binder selection [2]: 2.06

COc1cc(C(=O)O[C@H]2[C@@H]3C=CO[C@@H](O[C@@H]4O[C@H](CO)[C@@H](O)[C@H](O)[C@H]4O)[C@@H]3[C@@]3(CO)O[C@@H]23)ccc1O [Picroside II]
Enrichment Fold, HSP70 binder selection [1]: 4.0

Oc1cc(O)c2c(c1)O[C@H](c1cc(O)c(O)c(O)c1)[C@H](O)C2 [Epigallocatechin, epigallocatechin]
Enrichment Fold, HSP70 binder selection [1]: 4.3 | Fold Change, enrichment folds for PARP-1 binder selection [2]: 2.53

Cc1ncc(CO)c(CO)c1O [Pyridoxine, reference compound]
Enrichment Fold, HSP70 binder selection [1]: 3.4

O=C1C[C@@H](c2ccc(O[C@@H]3O[C@H](CO)[C@@H](O)[C@H](O)[C@H]3O)cc2)Oc2cc(O)ccc21 [Liquiritin]
Enrichment Fold, HSP70 binder selection [1]: 3.9 | Fold Change, enrichment folds for PARP-1 binder selection [2]: 2.66

O=C1C[C@@H](c2ccc(O)cc2)Oc2cc(O)ccc21 [Liquiritigenin]
Enrichment Fold, HSP70 binder selection [1]: 2.7

O=c1ccc2ccc(O)cc2o1 [7-Hydroxycoumarin]
Enrichment Fold, HSP70 binder selection [1]: 4.2

CC1=CC(=O)c2c(O)cccc2C1=O [Plumbagin]
Enrichment Fold, HSP70 binder selection [1]: 4.4 | Fold Change, enrichment folds for PARP-1 binder selection [2]: 2.97

Cc1c(F)cccc1NC(=O)Nc1ccc(Cl)c(S(=O)(=O)[C@H]2CCCNC2)c1O [Danirixin]
Enrichment Fold, HSP70 binder selection [1]: 2.9

COC1=C[C@@H]2[C@@H]3Cc4ccc(OC)c(O)c4[C@]2(CCN3C)CC1=O [sinomenine]
Enrichment Fold, HSP70 binder selection [1]: 3.2

O=c1cc(-c2ccccc2)oc2cc(O)c(O)c(O)c12 [Baicalein]
Enrichment Fold, HSP70 binder selection [1]: 3.6

c1coc(CNc2ncnc3[nH]cnc23)c1 [Kinetin]
Enrichment Fold, HSP70 binder selection [1]: 2.8

CNCC(O)c1ccc(O)cc1 (stereo not drawn) [Synephrine]
Enrichment Fold, HSP70 binder selection [1]: 3.2 | Fold Change, enrichment folds for PARP-1 binder selection [2]: 2.17

COc1cc2ccc(=O)oc2cc1O [Scopoletin]
Enrichment Fold, HSP70 binder selection [1]: 6.0 | Fold Change, enrichment folds for PARP-1 binder selection [2]: 2.82

O=c1ccc2cc(O)c(O)cc2o1 [Esculetin]
Enrichment Fold, HSP70 binder selection [1]: 4.1

CC(=O)c1c(O)cc(O)cc1O [Phloracetophenone]
Enrichment Fold, HSP70 binder selection [1]: 3.5

COc1cc2c(cc1O)CC[n+]1cc3c(OC)c(OC)ccc3cc1-2 [Jatrorrhizine]
Enrichment Fold, HSP70 binder selection [1]: 3.7 | Fold Change, enrichment folds for PARP-1 binder selection [2]: 2.04

c1ccc(CNc2ncnc3nc[nH]c23)cc1 [Benzyladenine]
Enrichment Fold, HSP70 binder selection [1]: 3.6

COc1cc2c(cc1O)CC[n+]1cc3c(OC)c(OC)ccc3cc1-2 [Jatrorrhizine hydrochloride]
Enrichment Fold, HSP70 binder selection [1]: 4.5 | Fold Change, enrichment folds for PARP-1 binder selection [2]: 2.23

COc1ccc(-c2coc3cc(O)cc(O)c3c2=O)cc1 [Biochanin A]
Enrichment Fold, HSP70 binder selection [1]: 3.7

O=C(O[C@@H]1Cc2c(O)cc(O)cc2O[C@@H]1c1ccc(O)c(O)c1)c1cc(O)c(O)c(O)c1 [(−)-Epicatechin gallate, (−)- Epicatechingallate]
Enrichment Fold, HSP70 binder selection [1]: 5.0 | Fold Change, enrichment folds for PARP-1 binder selection [2]: 2.81

O=c1c2ccccc2nc2n1CCc1c-2[nH]c2ccccc12 [rutaecarpin]
Enrichment Fold, HSP70 binder selection [1]: 3.2

C[C@H]1[C@H](OC(=O)CCC(=O)O)O[C@@H]2O[C@@]3(C)CC[C@H]4[C@H](C)CC[C@@H]1[C@@]24OO3 [Artesunate]
Enrichment Fold, HSP70 binder selection [1]: 2.4

O=C(CCc1ccc(O)cc1)c1c(O)cc(O)cc1O[C@@H]1O[C@H](CO)[C@@H](O)[C@H](O)[C@H]1O [Phlorizin]
Enrichment Fold, HSP70 binder selection [1]: 3.8

(+)-Catechin Hydrate
Enrichment Fold, HSP70 binder selection [1]: 3.8

COC(=O)c1ccc(O)c(O)c1 [Methyl protocatechuate]
Enrichment Fold, HSP70 binder selection [1]: 3.6

COc1cc2ccc(=O)oc2c(O)c1O [Fraxetin]
Enrichment Fold, HSP70 binder selection [1]: 3.3 | Fold Change, enrichment folds for PARP-1 binder selection [2]: 2.01

C[C@@H]1O[C@@H](O[C@H]2[C@H](Oc3cc(O)c4c(c3)O[C@H](c3ccc(O)cc3)CC4=O)O[C@H](CO)[C@@H](O)[C@@H]2O)[C@H](O)[C@H](O)[C@H]1O [Naringin]
Enrichment Fold, HSP70 binder selection [1]: 4.5 | Selected among enriched chemicals in PARP-1 nDEL screening ([2]; hit selection, FIG. 20(b), FIG. 21): selected | Fold Change, enrichment folds for PARP-1 binder selection [2]: 2.17

Oc1cc(O)c2c(c1)O[C@H](c1ccc(O)c(O)c1)[C@@H](O)C2 [(+) Catechin]
Enrichment Fold, HSP70 binder selection [1]: 2.7
